Assays:
[1] = molecular target: T1, CDK9 (Homo sapiens, UniProt P50750); test: KINOMEscan; assay type: binding; details: 2000 nM; read-out: Percent Control
T1 construct: purchased DiscoverX (Eurofins) KINOMEscan / scanEDGE, inferred from the naming style

[2] = molecular target: T2, ACVR1B (Homo sapiens, UniProt P36896); test: KINOMEscan; assay type: binding; details: 2000 nM; read-out: Percent Control
T2 construct: purchased DiscoverX (Eurofins) KINOMEscan / scanEDGE, inferred from the naming style
T2 sequence (P36896 24-505): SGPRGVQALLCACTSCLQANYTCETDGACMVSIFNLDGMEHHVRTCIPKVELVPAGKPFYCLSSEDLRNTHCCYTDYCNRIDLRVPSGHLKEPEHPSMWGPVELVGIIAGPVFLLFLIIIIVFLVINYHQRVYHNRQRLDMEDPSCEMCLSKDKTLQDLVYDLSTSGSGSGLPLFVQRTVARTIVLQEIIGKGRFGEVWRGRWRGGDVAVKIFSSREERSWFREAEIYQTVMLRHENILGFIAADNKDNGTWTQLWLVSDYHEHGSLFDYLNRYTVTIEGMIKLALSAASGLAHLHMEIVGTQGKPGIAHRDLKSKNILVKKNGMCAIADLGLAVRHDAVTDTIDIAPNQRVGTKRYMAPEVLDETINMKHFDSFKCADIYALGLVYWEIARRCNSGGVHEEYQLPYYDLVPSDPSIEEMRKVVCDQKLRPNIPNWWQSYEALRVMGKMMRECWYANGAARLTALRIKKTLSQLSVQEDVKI

[3] = molecular target: T3, ABL1(E255K)-phosphorylated (Homo sapiens, UniProt P00519, E255K); test: KINOMEscan; assay type: binding; details: 2000 nM; read-out: Percent Control
T3 construct: purchased DiscoverX (Eurofins) KINOMEscan / scanEDGE, inferred from the naming style

[4] = molecular target: T4, AXL (Homo sapiens, UniProt P30530); test: KINOMEscan; assay type: binding; details: 2000 nM; read-out: Percent Control
T4 construct: purchased DiscoverX (Eurofins) KINOMEscan / scanEDGE, inferred from the naming style
T4 sequence (P30530 26-894): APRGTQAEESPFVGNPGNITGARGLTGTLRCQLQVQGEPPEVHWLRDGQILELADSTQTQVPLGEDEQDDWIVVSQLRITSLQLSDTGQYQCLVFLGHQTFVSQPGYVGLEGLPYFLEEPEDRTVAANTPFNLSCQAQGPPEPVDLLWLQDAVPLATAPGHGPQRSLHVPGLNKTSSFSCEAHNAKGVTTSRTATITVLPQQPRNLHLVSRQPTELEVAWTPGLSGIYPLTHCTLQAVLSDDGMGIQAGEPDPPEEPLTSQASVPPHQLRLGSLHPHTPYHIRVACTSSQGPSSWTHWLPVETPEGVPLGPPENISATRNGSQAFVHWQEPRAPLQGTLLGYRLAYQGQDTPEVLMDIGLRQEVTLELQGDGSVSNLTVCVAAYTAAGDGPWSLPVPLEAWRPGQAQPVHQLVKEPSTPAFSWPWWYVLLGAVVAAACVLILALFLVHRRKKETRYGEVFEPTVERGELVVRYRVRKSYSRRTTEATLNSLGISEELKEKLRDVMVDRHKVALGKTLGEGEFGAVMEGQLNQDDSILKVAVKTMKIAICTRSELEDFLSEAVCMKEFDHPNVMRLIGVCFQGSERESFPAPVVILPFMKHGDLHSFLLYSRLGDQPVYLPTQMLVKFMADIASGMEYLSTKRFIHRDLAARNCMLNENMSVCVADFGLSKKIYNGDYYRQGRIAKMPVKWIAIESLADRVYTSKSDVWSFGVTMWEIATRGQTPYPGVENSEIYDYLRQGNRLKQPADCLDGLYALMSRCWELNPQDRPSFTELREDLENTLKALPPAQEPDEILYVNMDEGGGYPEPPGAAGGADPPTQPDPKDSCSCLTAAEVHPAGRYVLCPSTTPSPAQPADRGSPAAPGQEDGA

[5] = molecular target: PFKFB4 (Homo sapiens, UniProt Q16877); test: ADP-Glo kinase activity assay, PFKFB4; assay type: biochemical
PFKFB4, sequence (Q16877 whole entry, species assumed): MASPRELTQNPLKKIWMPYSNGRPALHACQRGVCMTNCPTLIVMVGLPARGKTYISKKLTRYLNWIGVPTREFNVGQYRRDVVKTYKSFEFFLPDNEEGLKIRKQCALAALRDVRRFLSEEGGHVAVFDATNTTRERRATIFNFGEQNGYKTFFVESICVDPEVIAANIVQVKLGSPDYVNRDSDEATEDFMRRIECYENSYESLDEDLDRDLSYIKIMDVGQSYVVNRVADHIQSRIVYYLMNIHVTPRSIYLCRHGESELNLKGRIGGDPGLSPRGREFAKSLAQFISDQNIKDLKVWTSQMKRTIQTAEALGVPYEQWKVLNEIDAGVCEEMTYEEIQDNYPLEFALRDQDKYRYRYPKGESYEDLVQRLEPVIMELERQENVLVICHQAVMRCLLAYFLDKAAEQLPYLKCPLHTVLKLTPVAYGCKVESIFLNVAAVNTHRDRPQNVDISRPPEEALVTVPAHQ
Method: The kinase activity of the bi-functional enzyme was quantified based on the production of ADP and F-2,6-P2 from ATP by ADP-GloTM Kinase Assay (Promega). The assay was performed in two steps; first, after the kinase reaction, an equal volume of ADP-GloTM Reagent was added to terminate the kinase reaction and deplete the remaining ATP. Second, the Kinase Detection Reagent was added to simultaneously convert ADP to ATP and allow the newly synthesized ATP to be measured using a luciferase/luciferin reaction. The light generated was measured using a luminescence counter (1450 MicroBeta TriLux). The assay was performed in white 384-well plates (OptiPlate, 6007299, PerkinElmer) by consecutive additions of a test compound solution (0.1 µL, serial diluted in DMSO from compound DMSO stock solution and dispensed by acoustic dispensing from UV-star 384-well plate 7360153, VWR), enzyme solution (5 µL) and substrate (fructose-6-phosphate (F6P) and adenosine-5′-triphosphate (ATP)) containing solution (5 µL). […] Four reference dose–response curves, one of them being the QC compound, were included and serial diluted as the test compounds. […] The inhibitory potency or IC50 values of test compounds on the kinase activity of the enzymes were calculated using a four-parameter model (model 205) in XLfit (IDBS ActivityBase XE Runner).

[6] = molecular target: T5, GSK3B (Homo sapiens, UniProt P49841); test: KINOMEscan; assay type: binding; details: 2000 nM; read-out: Percent Control
T5 construct: purchased DiscoverX (Eurofins) KINOMEscan / scanEDGE, inferred from the naming style
T5 sequence (P49841 whole entry): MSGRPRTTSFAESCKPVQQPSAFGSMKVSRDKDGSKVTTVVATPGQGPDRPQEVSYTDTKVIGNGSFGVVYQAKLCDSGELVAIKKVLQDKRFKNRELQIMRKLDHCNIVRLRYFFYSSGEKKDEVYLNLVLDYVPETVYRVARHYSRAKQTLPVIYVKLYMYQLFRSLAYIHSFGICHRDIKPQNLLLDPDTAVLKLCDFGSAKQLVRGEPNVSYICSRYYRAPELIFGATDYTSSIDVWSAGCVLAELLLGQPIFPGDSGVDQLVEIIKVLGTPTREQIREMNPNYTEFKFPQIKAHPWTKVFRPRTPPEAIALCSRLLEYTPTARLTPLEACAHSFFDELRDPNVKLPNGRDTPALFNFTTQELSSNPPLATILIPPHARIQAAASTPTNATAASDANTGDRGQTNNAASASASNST

[7] = molecular target: T6, EGFR(L858R) (Homo sapiens, UniProt P00533, L858R); test: KINOMEscan; assay type: binding; details: 2000 nM; read-out: Percent Control
T6 construct: purchased DiscoverX (Eurofins) KINOMEscan / scanEDGE, inferred from the naming style
T6 sequence (P00533 25-1210 L858R): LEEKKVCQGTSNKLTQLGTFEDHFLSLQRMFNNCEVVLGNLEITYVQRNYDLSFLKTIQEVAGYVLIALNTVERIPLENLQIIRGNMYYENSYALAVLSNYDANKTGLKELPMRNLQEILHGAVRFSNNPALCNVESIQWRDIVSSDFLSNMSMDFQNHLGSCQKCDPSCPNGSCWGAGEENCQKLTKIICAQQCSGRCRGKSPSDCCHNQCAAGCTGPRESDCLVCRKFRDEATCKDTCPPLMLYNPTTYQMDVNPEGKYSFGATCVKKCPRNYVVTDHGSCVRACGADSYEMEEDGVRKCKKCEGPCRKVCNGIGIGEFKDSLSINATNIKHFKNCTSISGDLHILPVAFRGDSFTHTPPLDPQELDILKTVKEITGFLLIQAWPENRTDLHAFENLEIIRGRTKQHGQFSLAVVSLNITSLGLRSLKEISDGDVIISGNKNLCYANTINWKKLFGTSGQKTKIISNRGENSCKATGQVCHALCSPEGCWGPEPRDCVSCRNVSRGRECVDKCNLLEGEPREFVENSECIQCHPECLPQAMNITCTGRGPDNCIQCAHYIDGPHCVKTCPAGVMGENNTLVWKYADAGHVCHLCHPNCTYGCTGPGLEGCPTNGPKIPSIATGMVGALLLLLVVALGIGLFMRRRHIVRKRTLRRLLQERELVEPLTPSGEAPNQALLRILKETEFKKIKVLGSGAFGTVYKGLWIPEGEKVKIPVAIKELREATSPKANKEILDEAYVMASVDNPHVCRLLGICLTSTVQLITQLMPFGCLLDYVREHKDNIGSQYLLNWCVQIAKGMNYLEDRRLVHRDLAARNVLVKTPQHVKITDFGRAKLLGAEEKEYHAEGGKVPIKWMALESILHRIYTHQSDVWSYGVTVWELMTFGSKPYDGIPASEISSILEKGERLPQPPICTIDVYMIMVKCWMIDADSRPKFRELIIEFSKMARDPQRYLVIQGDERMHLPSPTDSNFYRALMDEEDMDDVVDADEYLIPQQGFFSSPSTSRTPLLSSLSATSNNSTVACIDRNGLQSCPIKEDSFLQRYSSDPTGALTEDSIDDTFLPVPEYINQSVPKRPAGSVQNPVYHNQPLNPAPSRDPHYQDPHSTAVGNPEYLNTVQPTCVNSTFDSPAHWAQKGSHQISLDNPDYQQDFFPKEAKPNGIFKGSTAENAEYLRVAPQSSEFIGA

[8] = molecular target: T7, CHEK1 (Homo sapiens, UniProt O14757); test: KINOMEscan; assay type: binding; details: 2000 nM; read-out: Percent Control
T7 construct: purchased DiscoverX (Eurofins) KINOMEscan / scanEDGE, inferred from the naming style
T7 sequence (O14757 whole entry): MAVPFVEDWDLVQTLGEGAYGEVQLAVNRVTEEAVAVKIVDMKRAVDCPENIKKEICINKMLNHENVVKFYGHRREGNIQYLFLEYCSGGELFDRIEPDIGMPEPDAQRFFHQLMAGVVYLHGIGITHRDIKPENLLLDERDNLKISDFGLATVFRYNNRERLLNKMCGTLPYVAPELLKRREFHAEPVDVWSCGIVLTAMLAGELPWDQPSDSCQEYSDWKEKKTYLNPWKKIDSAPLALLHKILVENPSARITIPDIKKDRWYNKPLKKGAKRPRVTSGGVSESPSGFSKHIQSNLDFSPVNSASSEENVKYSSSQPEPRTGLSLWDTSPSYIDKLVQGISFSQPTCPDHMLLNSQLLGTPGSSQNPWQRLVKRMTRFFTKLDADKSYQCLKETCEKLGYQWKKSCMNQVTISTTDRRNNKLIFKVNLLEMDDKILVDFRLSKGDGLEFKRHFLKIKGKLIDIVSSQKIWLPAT

[9] = molecular target: T8, ABL1(T315I)-phosphorylated (Homo sapiens, UniProt P00519, T315I); test: KINOMEscan; assay type: binding; details: 2000 nM; read-out: Percent Control
T8 construct: purchased DiscoverX (Eurofins) KINOMEscan / scanEDGE, inferred from the naming style

[10] = molecular target: T9, CSNK1G2 (Homo sapiens, UniProt P78368); test: KINOMEscan; assay type: binding; details: 2000 nM; read-out: Percent Control
T9 construct: purchased DiscoverX (Eurofins) KINOMEscan / scanEDGE, inferred from the naming style
T9 sequence (P78368 whole entry): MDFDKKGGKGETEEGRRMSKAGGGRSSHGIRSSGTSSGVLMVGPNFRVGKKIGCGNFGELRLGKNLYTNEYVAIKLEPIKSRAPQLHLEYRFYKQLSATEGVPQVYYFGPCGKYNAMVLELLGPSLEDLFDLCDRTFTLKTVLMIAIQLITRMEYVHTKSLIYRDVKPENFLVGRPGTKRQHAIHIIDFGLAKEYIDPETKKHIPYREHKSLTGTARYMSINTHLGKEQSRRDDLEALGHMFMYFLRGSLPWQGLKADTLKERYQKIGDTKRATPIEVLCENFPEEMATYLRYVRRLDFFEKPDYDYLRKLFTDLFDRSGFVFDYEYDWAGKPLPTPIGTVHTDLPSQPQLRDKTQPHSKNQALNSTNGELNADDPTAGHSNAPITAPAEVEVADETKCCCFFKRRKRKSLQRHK

[11] = molecular target: T10, ABL1-nonphosphorylated (Homo sapiens, UniProt P00519); test: KINOMEscan; assay type: binding; details: 2000 nM; read-out: Percent Control
T10 construct: purchased DiscoverX (Eurofins) KINOMEscan / scanEDGE, inferred from the naming style

[12] = system: peripheral blood mononuclear cells (PBMCs); test: Viability of PBMCs; assay type: cell-based
[13] = system: U2OS cells; test: EdU incorporation in G2/M phase upon IR, flow cytometry; assay type: cell-based; details: 10 μM 6 h prior to IR 6 Gy
[14] = system: U2OS cells; test: IR-induced PFKFB3/RRM2 foci co-localization; assay type: cell-based; details: pre-treatment prior to IR 6 Gy
Method: Cells were grown on sterilized coverslips and fixed with 4% paraformaldehyde (PFA) (Santa Cruz) and 2% sucrose (Sigma Aldrich) for 15 min at room temperature. They were then permeabilized with 0.2% NP-40 (Thermo Scientific) for 10 min at room temperature followed by 30 min of blocking in blocking buffer (2 or 3% BSA, 5% glycerol, 0.1% Tween 20 (Sigma Aldrich)). Coverslips were subsequently incubated for 1, 2, or 24 h in primary antibody and 40 min in secondary antibody diluted in blocking buffer, DNA was stained with DAPI for 10 min. The coverslips were mounted with Prolonged Gold mounting medium (Invitrogen). Images were acquired with a Zeiss LSM 780 microscope using a 40× or 63× oil immersion lens and processed in ImageJ and CellProfiler.
To visualize PFKFB3, RPA32, RAD51, BRCA1, 53BP1, and RRM2 IRIF, the cells were first washed with PBS and then incubated for 5 min at room temperature with cytoskeleton (CSK) buffer containing 10 mM PIPES pH 7.0 (Sigma Aldrich), 100 mM NaCl (EMD Millipore), 300 mM sucrose (Sigma Aldrich), 3 mM MgCl2 (Sigma Aldrich), and 0.7% Triton X-100 (Sigma Aldrich). After these treatments, the cells were washed once again with PBS and then fixed in 4% PFA with 2% sucrose.

[15] = system: U2OS cells; test: Intracellular dNTP measurement (HIV-1 RT-based); assay type: cell-based; details: 4 h and 24 h, relative to DMSO
Method: HIV-1 RT-based dNTP assay[55] was used to quantify dNTP levels in U2OS cells upon indicated treatment and time points. Briefly, cells were trypsinized and counted before dNTPs extraction by 60% methanol solution, the dried dNTP samples were resuspended with water, and then RT-based primer extension reaction was performed to determine the amounts of dNTPs. Obtained dNTP amounts were normalized to 1 × 10^6 cells, and dNTP levels were related to control treatment with DMSO.

[16] = system: BJ TERT cells; test: Clonogenic survival, BJ TERT; assay type: cell-based; details: with and without IR (2 Gy), concentrations active in BJ RAS
Method: U2OS cells were transfected with indicated siRNAs and 24 h later exposed to IR (2 Gy) or left untreated and allowed to recover for 4 h. One-hundred U2OS cells were then seeded into 6-well plates and after 10 days colonies were fixed and stained with 4% methylene blue (Sigma Aldrich) in methanol. BJ TERT (500 cells), BJ RAS (200 cells), or U2OS (200 cells) were seeded into 6-well plates 24 h prior to treatment with inhibitors as indicated or vehicle for 24 h and then subjected to IR (2 Gy). The inhibitors were washed out 72 h later and colonies were fixed 4 days (BJ RAS) or 7 days (BJ TERT) later with 4% methylene blue in methanol.

T1 sequence (P50750 whole entry): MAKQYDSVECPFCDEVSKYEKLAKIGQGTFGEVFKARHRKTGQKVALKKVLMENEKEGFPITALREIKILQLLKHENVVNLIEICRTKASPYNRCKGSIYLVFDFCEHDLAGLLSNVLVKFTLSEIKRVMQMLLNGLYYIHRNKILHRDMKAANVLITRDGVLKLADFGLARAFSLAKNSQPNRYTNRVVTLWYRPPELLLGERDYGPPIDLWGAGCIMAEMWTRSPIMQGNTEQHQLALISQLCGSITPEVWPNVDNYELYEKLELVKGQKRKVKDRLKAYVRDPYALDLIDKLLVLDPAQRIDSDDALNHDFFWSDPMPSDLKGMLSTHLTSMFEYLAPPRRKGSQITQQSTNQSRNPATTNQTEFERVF

Compound	remaining binding at 2 µM [1] [%]	remaining binding at 2 µM [2] [%]	remaining binding at 2 µM [3] [%]	remaining binding at 2 µM [4] [%]	IC50 ([5]; ADP-GLO assay) [µM]	selectivity window PFKFB3 versus PFKFB4 ([5]; ratio of IC50 values)	remaining binding at 2 µM [6] [%]	remaining binding at 2 µM [7] [%]	remaining binding at 2 µM [8] [%]	remaining binding at 2 µM [9] [%]	remaining binding at 2 µM [10] [%]	remaining binding at 2 µM [11] [%]	effect on viability of PBMCs [12]	IR-induced increase in EdU-positive cell population in G2/M phase (in words) [13]	IR-induced co-localization of PFKFB3 and RRM2 (in words) [14]	decrease of all four dNTPs [15]	clonogenic survival of BJ TERT (in words) [16]
O=C(O)c1ccc(NS(=O)(=O)c2cccc(-c3cc(F)ccc3O)c2)cc1O [KAN0438241, 4-{[(5′-Fluoro-2′-hydroxybiphenyl-3-yl)sulfonyl]amino}-2-hydroxybenzoic acid]	100	100	100	100	3.6	about 20 fold	91	90	89	100	97	100					
O=C(OCCO)c1ccc(NS(=O)(=O)c2cccc(-c3cc(F)ccc3O)c2)cc1O [KAN0438757, 2-Hydroxyethyl-4-{[(5′-fluoro-2′-hydroxybiphenyl-3-yl)sulfonyl]amino}-2-hydroxybenzoate]													not affected	impaired	disrupted	50–75%	only marginally affected

From paper PMC6155239, “Targeting PFKFB3 radiosensitizes cancer cells and suppresses homologous recombination” (Nature Communications, 2018)
